# Results published in patent US7452887B2, “Quinoline- and isoquinoline-based compounds exhibiting ATP-utilizing enzyme inhibitory activity, and compositions, and uses thereof” (Amphora Discovery Corporation, priority 2004, dated 2008).
# Target: MAPKAPK2 (Homo sapiens, UniProt P49137)
# Test: HTS ATP-utilizing enzyme assay, off-chip mobility-shift (Caliper HTS 250)
# Assay type: biochemical
# Conditions: test compound 10 μM, kinase listed = active (greater than six-sigma from the mean activity of inactive compounds)
# From the text: The following procedures describe the reagent and plate preparation for a HTS of an ATP-utilizing enzyme, such as a protein kinase, run in an off-chip mobility-shift assay format. The following provides an HTS protocol for running a protein kinase HTS screen on a Caliper HTS 250 microfluidics system. The following parameters are dependent on the protein kinase used and can be determined by one skilled in the art as part of a typical assay development process. For example, the peptide substrate used can be identified from the current literature, by screening a peptide library of potential protein kinase substrates, or by other applicable means accepted in the field.
# The following table provides typical screen assay parameters appropriate for a Caliper HTS 250 microfluidics system.
# The reagents and buffers listed in the following table are generally applicable for developing and running an HTS screen on a human protein kinase using the Caliper HTS 250 system.
# The following reagents were prepared using the previously described buffers.
# A 2× Master Buffer solution was prepared by combining 200 mL of 1 M HEPES, pH 7.5, 2 mL of 10% Triton X-100, 20 mL of 10% BSA, and 778 mL of H2O.
# A TCB Buffer solution was prepared by combining 125 mL of 2× Master Buffer, 10 mL of 0.5 M EDTA, 6.25 mL of 4% coating reagent, 1.01 mL of 100% DMSO, and 107.74 mL H2O.
# Assays to determine the kinase inhibitory activity of compounds of the present disclosure were performed using a Caliper HTS 250 microfluidics device, Greiner U-bottom assay plates, a Multidrop for transfer of reagents, and Biomek FX (AMNCBM03) software. Initially, 2.4 μL of a 1 mM solution of a test compound in 100% DMSO was added to a well of the Greiner U-bottom plate. A single Greiner U-bottom plate having 24×16 wells could include multiple test compounds. […] Using the Biomek FX, 10 μL of 0.5 M EDTA was added by the span-8 to wells, indicated as 100% Control and 2.4 μL of 100% DMSO was added by the span-8 to wells, indicated as 0% Control. […] The total reaction volume in each well was 25 μL, and the concentration of the test compound was 10 μM. The assay plate was incubated for 2.5 hrs at 20° C. to 22° C. […] The inhibition of the ATP-utilizing enzyme, such as a particular protein kinase, was determined by measuring the ratio of the peptide substrate to phosphorylated product for each well of the assay plate using the Caliper HTS 250 system.
# The use of six-sigma statistical limits represents a conservative method for declaring potential hits among targets. The six-sigma activity, as well as the mean population activity, can be different for each target enzyme.
# Chain of MAPKAPK2 (P49137 whole entry): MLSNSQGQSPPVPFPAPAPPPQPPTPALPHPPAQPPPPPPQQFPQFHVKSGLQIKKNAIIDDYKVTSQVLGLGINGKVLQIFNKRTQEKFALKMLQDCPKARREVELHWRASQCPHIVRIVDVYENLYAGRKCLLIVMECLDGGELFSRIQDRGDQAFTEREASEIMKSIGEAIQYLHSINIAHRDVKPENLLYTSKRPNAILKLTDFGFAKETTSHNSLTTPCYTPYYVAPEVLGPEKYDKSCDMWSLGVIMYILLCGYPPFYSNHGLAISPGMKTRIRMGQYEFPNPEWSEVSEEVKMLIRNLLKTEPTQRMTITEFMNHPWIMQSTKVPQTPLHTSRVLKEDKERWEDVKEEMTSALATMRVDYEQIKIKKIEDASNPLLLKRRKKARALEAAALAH
row,SMILES,Activity
1,CN(C)[C@@H]1CCN(c2ccc(Nc3ccnc4ccc(-c5ccc(Cl)cc5)cc34)cc2)C1 [(R)-6-(4-chlorophenyl)-N-(4-(3-(dimethylamino)pyrrolidin-1-yl)phenyl)quinolin-4-amine],MAPKAPK2
2,"Cc1ccc(-c2ccc3nccc(Nc4ccc(N5CCC(N(C)C)C5)cc4)c3c2)cc1C (stereo not shown) [N-(4-(3-(dimethylamino)pyrrolidin-1-yl)phenyl)-6-(3,4-dimethylphenyl)quinolin-4-amine]",MAPKAPK2
3,CN(C)C1CCN(c2ccc(Nc3ccnc4ccc(-c5ccc(Cl)nc5)cc34)cc2)C1 (stereo not shown) [6-(6-chloropyridin-3-yl)-N-(4-(3-(dimethylamino)pyrrolidin-1-yl)phenyl)quinolin-4-amine],MAPKAPK2
4,Cc1ccc(-c2ccc3nccc(Nc4ccc(N5CCC(N(C)C)C5)cc4)c3c2)nc1 (stereo not shown) [N-(4-(3-(dimethylamino)pyrrolidin-1-yl)phenyl)-6-(5-methylpyridin-2-yl)quinolin-4-amine],MAPKAPK2
5,CCCCN1CCN(c2ccc(Nc3ccnc4ccc(-c5ccc(OC)cc5)cc34)cc2)CC1 [N-(4-(4-butylpiperazin-1-yl)phenyl)-6-(4-methoxyphenyl)quinolin-4-amine],MAPKAPK2
6,"CN1CCN(c2ccc(Nc3ccnc4ccc(-c5ccc(C(F)(F)F)cc5C(F)(F)F)cc34)cc2)CC1 [6-(2,4-bis(trifluoromethyl)phenyl)-N-(4-(4-methylpiperazin-1-yl)phenyl)quinolin-4-amine]",MAPKAPK2
7,CCC(CC)N1CCN(c2ccc(Nc3ccnc4ccc(-c5ccccc5)cc34)cc2)CC1 [N-(4-(4-(pentan-3-yl)piperazin-1-yl)phenyl)-6-phenylquinolin-4-amine],MAPKAPK2
8,CN1CCN(c2ccc(Nc3ccnc4ccc(-c5cncnc5)cc34)cc2)CC1 [N-(4-(4-methylpiperazin-1-yl)phenyl)-6-(pyrimidin-5-yl)quinolin-4-amine],MAPKAPK2
9,CN1CCN(c2ccc(Nc3ccnc4ccc(-c5ccc(C#N)cc5)cc34)cn2)CC1 [4-(4-(6-(4-methylpiperazin-1-yl)pyridin-3-ylamino)quinolin-6-yl)benzonitrile],MAPKAPK2
10,CCN(CC)C1CCN(c2ccc(Nc3ccnc4ccc(-c5ccc(Cl)cc5)cc34)cc2)C1 (stereo not shown) [6-(4-chlorophenyl)-N-(4-(3-(diethylamino)pyrrolidin-1-yl)phenyl)quinolin-4-amine],MAPKAPK2
11,CC(=O)N1CCc2cc(-c3ccc4nccc(Nc5ccc(N6CCC(N(C)C)C6)cc5)c4c3)ccc21 (stereo not shown) [1-(5-(4-(4-(3-(dimethylamino)pyrrolidin-1-yl)phenylamino)quinolin-6-yl)indolin-1-yl)ethanone],MAPKAPK2
12,CN1CCN(c2ccc(Nc3ccnc4ccc(-c5ccc(CCC(=O)O)cc5)cc34)cc2)CC1 [3-(4-(4-(4-(4-methylpiperazin-1-yl)phenylamino)quinolin-6-yl)phenyl)propanoic acid],MAPKAPK2
13,CN(C)C1CCCN(c2ccc(Nc3ccnc4ccc(-c5ccc(C#N)cc5)cc34)cc2)C1 (stereo not shown) [4-(4-(4-(3-(dimethylamino)piperidin-1-yl)phenylamino)quinolin-6-yl)benzonitrile],MAPKAPK2
14,CCN(CC)c1ccc(-c2ccc3nccc(Nc4ccc(N5CCC(N(C)C)C5)cc4)c3c2)cc1 (stereo not shown) [6-(4-(diethylamino)phenyl)-N-(4-(3-(dimethylamino)pyrrolidin-1-yl)phenyl)quinolin-4-amine],MAPKAPK2
15,"CN(C)C(=O)CN1CCN(c2ccc(Nc3ccnc4ccc(-c5ccc(C#N)cc5)cc34)cc2)CC1 [2-(4-(4-(6-(4-cyanophenyl)quinolin-4-ylamino)phenyl)piperazin-1-yl)-N,N-dimethylacetamide]",MAPKAPK2
16,CCC(CC)N1CCN(c2ccc(Nc3ccnc4ccc(-c5ccc(C#N)cc5)cc34)cc2)CC1 [4-(4-(4-(4-(pentan-3-yl)piperazin-1-yl)phenylamino)quinolin-6-yl)benzonitrile],MAPKAPK2
17,CN(C)CC1CCN(c2ccc(Nc3ccnc4ccc(-c5ccc(C#N)cc5)cc34)cc2)CC1 [4-(4-(4-(4-((dimethylamino)methyl)piperidin-1-yl)phenylamino)quinolin-6-yl)benzonitrile],MAPKAPK2
18,CCCN1CCN(c2ccc(Nc3ccnc4ccc(-c5ccc(OC)cc5)cc34)cc2)CC1 [6-(4-methoxyphenyl)-N-(4-(4-propylpiperazin-1-yl)phenyl)quinolin-4-amine],MAPKAPK2

# More lines, now with the values ahead:
row,Activity,SMILES
1,MAPKAPK2,CN(C)C1CCN(c2ccc(Nc3ccnc4ccc(-c5ccc6[nH]ccc6c5)cc34)cc2)C1 (stereo not shown) [N-(4-(3-(dimethylamino)pyrrolidin-1-yl)phenyl)-6-(1H-indol-5-yl)quinolin-4-amine]
2,MAPKAPK2,CN(C)C1CCN(c2ccc(Nc3ccnc4ccc(-c5ccc6ccccc6c5)cc34)cc2)C1 (stereo not shown) [N-(4-(3-(dimethylamino)pyrrolidin-1-yl)phenyl)-6-(naphthalen-2-yl)quinolin-4-amine]
3,MAPKAPK2,"COc1ccc(-c2ccc3nccc(Nc4ccc(N5CCN(CC(=O)N(C)C)CC5)cc4)c3c2)cc1 [2-(4-(4-(6-(4-methoxyphenyl)quinolin-4-ylamino)phenyl)piperazin-1-yl)-N,N-dimethylacetamide]"
4,MAPKAPK2,COc1ccc(-c2ccc3nccc(Nc4ccc(N5CCN(C6CCCC6)CC5)cc4)c3c2)cc1 [N-(4-(4-cyclopentylpiperazin-1-yl)phenyl)-6-(4-methoxyphenyl)quinolin-4-amine]
5,MAPKAPK2,CN1CCN(c2ccc(Nc3ccnc4ccc(-c5ccc(Cl)s5)cc34)cc2)CC1 [6-(5-chlorothiophen-2-yl)-N-(4-(4-methylpiperazin-1-yl)phenyl)quinolin-4-amine]
6,MAPKAPK2,Cc1cccc(-c2ccc3nccc(Nc4ccc(N5CCC(N(C)C)C5)cc4)c3c2)c1 (stereo not shown) [N-(4-(3-(dimethylamino)pyrrolidin-1-yl)phenyl)-6-m-tolylquinolin-4-amine]
7,MAPKAPK2,OCCN1CCN(c2ccc(Nc3ccnc4ccc(-c5ccccc5)cc34)cc2)CC1 [2-(4-(4-(6-phenylquinolin-4-ylamino)phenyl)piperazin-1-yl)ethanol]
8,MAPKAPK2,"CN(C)C1CCN(c2ccc(Nc3ccnc4ccc(-c5ccc6c(c5)CCC6=O)cc34)cc2)C1 (stereo not shown) [5-(4-(4-(3-(dimethylamino)pyrrolidin-1-yl)phenylamino)quinolin-6-yl)-2,3-dihydroinden-1-one]"
9,MAPKAPK2,CN(C)C1CCN(c2ccc(Nc3ccnc4ccc(-c5cccc(OCc6ccccc6)c5)cc34)cc2)C1 (stereo not shown) [6-(3-(benzyloxy)phenyl)-N-(4-(3-(dimethylamino)pyrrolidin-1-yl)phenyl)quinolin-4-amine]
10,MAPKAPK2,CN(C)C1CCN(c2ccc(Nc3ccnc4ccc(-c5ccc(Cl)cc5)cc34)cc2)C1 (stereo not shown) [6-(4-chlorophenyl)-N-(4-(3-(dimethylamino)pyrrolidin-1-yl)phenyl)quinolin-4-amine]
11,MAPKAPK2,CC(C)N1CCN(c2ccc(Nc3ccnc4ccc(-c5ccc(C#N)cc5)cc34)cc2)CC1 [4-(4-(4-(4-isopropylpiperazin-1-yl)phenylamino)quinolin-6-yl)benzonitrile]
12,MAPKAPK2,COc1cc(-c2ccc3nccc(Nc4ccc(N5CCC(N(C)C)C5)cc4)c3c2)ccc1Cl (stereo not shown) [6-(4-chloro-3-methoxyphenyl)-N-(4-(3-(dimethylamino)pyrrolidin-1-yl)phenyl)quinolin-4-amine]
13,MAPKAPK2,N#Cc1ccc(-c2ccc3nccc(Nc4ccc(N5CCN(C6CCCC6)CC5)cc4)c3c2)cc1 [4-(4-(4-(4-cyclopentylpiperazin-1-yl)phenylamino)quinolin-6-yl)benzonitrile]
14,MAPKAPK2,CN(C)C1CCN(c2ccc(Nc3ccnc4ccc(-c5ccc(OC(F)F)cc5)cc34)cc2)C1 (stereo not shown) [6-(4-(difluoromethoxy)phenyl)-N-(4-(3-(dimethylamino)pyrrolidin-1-yl)phenyl)quinolin-4-amine]
15,MAPKAPK2,Cc1cc(-c2ccc3nccc(Nc4ccc(N5CCC(N(C)C)C5)cc4)c3c2)ccc1Cl (stereo not shown) [6-(4-chloro-3-methylphenyl)-N-(4-(3-(dimethylamino)pyrrolidin-1-yl)phenyl)quinolin-4-amine]
16,MAPKAPK2,CN1CCN(c2ccc(Nc3ccnc4ccc(-c5ccccc5C(N)=O)cc34)cc2)CC1 [2-(4-(4-(4-methylpiperazin-1-yl)phenylamino)quinolin-6-yl)benzamide]
